Results on 5 compounds are retold here after patent publication US12055536B2, “Device for detection of cellular stress” (Trustees of Boston University, priority 2021, dated 2024).

The test system of assay [1] is OVCAR5-cisR cells. The assay can be described thus: Isotope labeling and SRS imaging. The assay is classed as cell-based, human. The note with it: BMS 10 μM for 24 hours, 100 μM PA-d31 for 6 hours. As for the experimental part: (§1) For labeling with glucose-d7, media was replaced with glucose-free DMEM medium (Thermo Fisher Scientific, #11966025)+10% FBS+P/S supplemented with 25 mM glucose-d7 after seeding the cells in 35 mm glass-bottom dishes overnight. For labeling with FA or analogs, including PA-d31, OA-d34, and ODYA, FA or analogs were added to the culture media at final concentration of 100 μM and cells were treated for 6 h. For quantitative SRS imaging, cells on glass-bottom dishes were fixed with 10% neutral buffered formalin for 30 min and washed with PBS for 3 times. Hyperspectral SRS imaging was performed to the cells at Raman spectral region from 2100 to 2300 cm^−1.
(§2) To identify the source of increased lipid content in cisplatin-resistant ovarian cancer cells, the contribution of de novo lipogenesis and of fatty acid uptake were examined, respectively. Using a stable isotope probing method, the level of lipogenesis was examined by feeding the cells with deuterium labeled glucose-d7. […] Quantitative analysis confirmed significant reduction of both signal intensity and relative area fraction in PEO4 cells when compared to PEO1 cells (FIG. 2B), indicating a decrease in glucose derived anabolism and de novo lipogenesis in cisplatin-resistant cells. […]

Assay [2] relates to SKOV3-cisR cells. In words: Isotope labeling and SRS imaging. The assay is classed as cell-based, human. The note with it: BMS 5 μM, 10 μM or 20 μM for 24 hours, 100 μM PA-d31 for 6 hours. As for the experimental part:
as §1, §2

For a further assay, the system named is PEO1 cells. In words: Cell viability assay (dose-response). It counts as cell-based, human. The note with it: PEO1 cells (sensitive). As for the experimental part: (§3) Cell viability was measured by MTS assay (Abcam, #ab197010) or by CellTiter-Glo™ assay (Promega, #G7570). Cells were seeded at 96-well plates at densities of 2000˜5000 cells per well overnight. Treatment was added to the cells at indicated concentrations for 72 h. Cell viability was measured by incubating with MTS reagent for 4 h and reading absorbance at 490 nm or incubating with CellTier-Glo™ reagent for 10 min and reading luminescence by a plate reader. Six replicates were used for each group.
(§4) In addition, isogenic PEO1/PEO4 cell lines derived from the same patient were studied, at the time of a platinum sensitive (PEO1) and platinum resistant-recurrence (PEO4).
(§5) Having shown decreased glucose-derived anabolism and increased fatty acid uptake in cisplatin-resistant ovarian cancer cells, whether this metabolic feature can be used for differentiation of cisplatin-resistant from cisplatin-sensitive cancer cells was explored. […] In Table 2 below, quantitation of glucose-d7 (G-d7), PA-d31, and OA-d34 are shown as area fraction of C-D signal out of total cellular area, in mean values.

The next assay concerns SKOV3 cells. The assay can be described thus: Cell viability assay (dose-response). The assay is classed as cell-based, human. The note with it: SKOV3 cells (sensitive). As for the experimental part:
as §3, §4, §5

Assay [3] has as its system OVCAR5 cells. In words: Cell viability assay (dose-response). The assay is classed as cell-based, human. The note with it: OVCAR5 cells (sensitive). Here is the method:
as §3, §4, §5

The test system of assay [4] is OVCAR5-cisR cells. The assay can be described thus: Cell viability assay (dose-response). The assay is classed as cell-based, human. As for the experimental part:
as §3, §4, §5

The next assay concerns PEO4 cells. In words: Cell viability assay (dose-response). It counts as cell-based, human. Here is the method: as §3, §4, §5
Assay [5] relates to SKOV3-cisR cells. In words: Cell viability assay (dose-response). The note with it: SKOV3-cisR cells. It counts as cell-based, human. Here is the method: as §3, §4, §5
For assay [6], the system named is SKOV3-cisR cells. In words: Large-area hyperspectral SRS imaging of lipids, single cell analysis. It counts as cell-based, human. The note with it: 10 μM C-75.
Protocol: Hyperspectral SRS imaging was performed on a lab-built system following previously published method [8]. The laser source was a femtosecond laser (InSight™ DeepSee™, Spectra-Physics™, Santa Clara, CA, USA) operating at 80 MHz with two synchronized output beams, a tunable pump beam ranging from 680 nm to 1300 nm, and a Stokes beam fixed at 1040 nm. For imaging at the C-H vibration region (2800˜3050 cm^−1), pump beam was tuned to 798 nm. The Stokes beam was modulated at 2.3 MHz by an acousto-optic modulator (1205-C, Isomet®). After combination, both beams were chirped by two 12.7 cm long SF57 glass rods and then sent to a laser-scanning microscope. The power of pump and Stokes beam before microscope was controlled to be 20 mW and 200 mW, respectively. […]
Lipid analysis in single cells were performed through the software CellProfiler™ [68]. […] Morphological information of each cell and lipid analysis, including LD number and intensity in single cells were measured and reported in the output results. […] For each sample, a few hundreds to a thousand of cells were analyzed.
An SRS spectrum was extracted at each pixel from the image stack. […] Finally, quantitative characterization of lipids in terms of integrated intensity, mean intensity, area, and lipid droplet size in each individual cell was performed.
Another assay relates to OVCAR5 xenografts. In words: OVCAR5 xenografts in mice treated with carboplatin. The assay is classed as in vivo. The note with it: 25 mg/kg carboplatin weekly i.p. for three cycles versus saline. Here is the method:
Xenografts were obtained through intraperitoneally implantation of 2 million OVCAR5 cells in female (6-8 weeks old) athymic nude mice (Foxn1^nu, Envigo). Two weeks after inoculation, tumor harboring mice were treated with PBS (sensitive group, n=3) or 25 mg/kg carboplatin (resistant group, n=3) via weekly i.p. injection for three cycles. Tumors were collected and weighted one week after the last cycle and frozen. For SRS imaging, tumors were sectioned at […] thickness slices by cryostat. To isolate tumor cells from tissue, PBS and carboplatin treated xenografts were mechanically and enzymatically dissociated in Dulbecco's modified Eagle's medium/F12 (Thermo Fisher Scientific) containing collagenase (300 IU/ml, Sigma-Aldrich) and hyaluronidase (300 IU/ml, Sigma-Aldrich) for 2-4 hours at 37° C. […] To determine whether lipid accumulation also occurs in vivo in platinum-treated tumors, SRS imaging of lipids was performed in OVCAR5 xenografts collected from mice treated weekly with saline or carboplatin for three weeks. Tumor growth was suppressed by carboplatin treatment (FIG. 1N). […] (FIG. 1O). The results shown in FIGS. 1P-1Q indicate heterogenous lipid accumulation and higher lipid amount in the carboplatin-treated tumors compared with the platinum-sensitive tumors. Collectively, higher level of lipid content was a metabolic feature of cisplatin-resistant ovarian cancer cells.

Assay [7] relates to platinum resistant PDX model. The assay can be described thus: Platinum resistant patient-derived xenograft (PDX) model. The assay is classed as in vivo. The note with it: day 14 to 37. As for the experimental part: The platinum resistant PDX model was developed as previously described. After passage through a donor animal, fresh tumor (equal size) was implanted subcutaneously (SC) in 20 female 7-8-week-old NSG mice (Jackson Labs, Cat #: JAX:00555). Tumor sizes were measured using calipers twice per week and tumor volumes were calculated according to the formula length×width^2/2. When the tumor volume reached 100 mm^3, the animals were randomized into four groups: vehicle, carboplatin alone (10 mg/kg weekly intraperitoneal (i.p.) injection), etomoxir alone (40 mg/kg daily i.p. injection), and combination of carboplatin (10 mg/kg weekly i.p. injection) and etomoxir (40 mg/kg daily i.p. injection). Body weights and habitus were monitored twice per week and mice were sacrificed when the largest tumor exceeded 1500 mm^3 or if human endpoints were reached earlier.
A patient-derived xenograft (PDX) model rendered platinum resistant through repeated exposure to carboplatin in vivo as described previously was used to test whether interruption of fatty acid oxidation could sensitize ovarian tumors to platinum in vivo.
(In general: Xenograft models place foreign cells or tissue in a host animal.)

Assay [8] relates to OVCAR5 cells. The assay can be described thus: Fatty acid oxidation assay (extracellular oxygen consumption kit). The note with it: 40 μM etomoxir over 3 hours. It counts as cell-based, human. As for the experimental part:
(§6) Fatty acid oxidation (FAO) was measured using a commercial kit (Abcam, #ab217602) following the provided protocol. Briefly, cells were seeded in 96-well plate with 150 k cells/well. After incubation overnight, medium was replaced. 10 μL of Extracellular O2 consumption reagent, and 2 drops of high-sensitivity mineral oil (pre-heated at 37° C.) were added to each well. Fluorescence was measured in plate reader at 2 min intervals for 180 min at excitation/emission=380/650 nm. Etomoxir was added at final concentration of 40 μM to block FAO. Oxygen consumption rate (OCR) is presented as AFluorescence intensity/Min/cell and FAO rate is calculated as OCRFAO=OCRtotal−OCREtomoxir. At least three replicates were included for each measurement.

Assay [9] concerns OVCAR5-cisR cells. Described as above. The assay is classed as cell-based, human. The note with it: 40 μM etomoxir over 3 hours. As for the experimental part: as §6
Assay [10] deals with OVCAR5 cells. The assay can be described thus: OCR and ECAR by Seahorse analysis. It counts as cell-based, human. The note with it: etomoxir treatment. As for the experimental part: (§7) Cell lines were seeded in a Seahorse® XF96 Cell Culture Microplate (Agilent) at density of 6×10^4 (OVCAR5 pair) or 4×10^4 (PEO pair) per well. After incubation at 37° C. overnight for cell attachment, OCR, and extracellular acidification rate (ECAR) were measured through Seahorse® XFe96 Analyzer (Agilent). Measurement time was 30 seconds following 3 minutes mixture and 30 seconds waiting time. First three cycles were used for basal respiration measurement. […] Basal respiration, ATP production and maximal respiration reduction were calculated following the manufacturer's instructions.

Assay [11] relates to OVCAR5-cisR cells. In words: OCR and ECAR by Seahorse analysis. It counts as cell-based, human. The note with it: etomoxir treatment. Here is the method:
as §7

The next assay relates to COV362-cisR cells. The assay can be described thus: Cell viability assay (dose-response). The assay is classed as cell-based, human. As for the experimental part:
as §3, §4, §5

Assay [12] concerns OVCAR5-cisR cells. The assay can be described thus: ATP/ADP assay. It counts as cell-based, human. The note with it: 3.3 μM cisplatin with 100 μM palmitic acid for 6 hours. Here is the method: NADP/NADPH and ADP/ATP were measured by using commercial kits (Abcam, #ab65349 and #ab65313). For NADPH measurement, cells (˜1×10^6 cells) were pelleted and extracted using NADPH/NADP extraction buffer. Total NADP/NADPH was directly measured using the assay kit and NADPH alone was measured after decomposing NADP by heating at 60° C. for 30 min. Absorption at 450 nm was measured by plate reader (Molecular Devices, SpectraMax i3x). For ATP measurement, cells were seeded in 96-well plates. ATP was measured directly and total ATP+ADP was measured by converting ADP to ATP. The luminescent signal was measured by plate reader. At least three replicates were included for each measurement.

`CCc1c(-c2ccccc2)c(-c2ccccc2)nn1-c1ccccc1-c1cccc(OCC(=O)O)c1` [BMS309403]: the “PA-d31 uptake (C-D SRS signal intensity)” value in the assay on OVCAR5-cisR cells [1] was “significantly reduced”. Moreover, the “fatty acid uptake (C-D SRS signal intensity)” value in the assay with SKOV3-cisR cells [2] is “Suppression of fatty acid uptake”. The “dose-response to cisplatin with supplemental BMS treatment” value in the assay on PEO1 cells was “less obvious”; in the assay with SKOV3 cells, “less obvious”; in the assay with OVCAR5 cells [3], “less obvious”; with OVCAR5-cisR cells [4] (OVCAR5-cisR cells) it was “reduced resistance to cisplatin”; in the assay with PEO4 cells (PEO4 cells) it was “reduced resistance to cisplatin”; with SKOV3-cisR cells [5], “reduced resistance to cisplatin”.

With `C=C1C(=O)OC(CCCCCCCC)C1C(=O)O` (centres unmarked) [C-75], in the assay on SKOV3-cisR cells [6], the “increased lipid content in SKOV3-cisR compared with SKOV3” value is recorded as “did not affect the increased lipid content”.

Consider `N.N.O=C([O-])C1(C(=O)[O-])CCC1.[Pt+2]` [carboplatin], for which the “Tumor growth (weights of xenografts)” value in the assay with OVCAR5 xenografts was “suppressed”. Besides, the “tumor growth (total tumor volume)” value in assay [7] (carboplatin alone, 10 mg/kg weekly i.p.) is “slight reduction of tumor growth”.

With `CCOC(=O)[C@@]1(CCCCCCOc2ccc(Cl)cc2)CO1` [etomoxir], in assay [7] (etomoxir alone, 40 mg/kg daily i.p.), the “tumor growth (total tumor volume)” value is recorded as “slight reduction of tumor growth”. In addition, the oxygen consumption result in the assay on OVCAR5 cells [8] is reported as “did not induce an obvious change”; with OVCAR5-cisR cells [9], “significantly reduced”. Besides, the “OCR (Seahorse FAO assay)” value in the assay with OVCAR5 cells [10] was “less sensitive”; in the assay on OVCAR5-cisR cells [11], “obvious reduction of OCR”. Moreover, the “dose-response to cisplatin curves with etomoxir treatment” value is recorded as “significantly left shifted” in the assay with COV362-cisR cells (COV362-cisR cells, etomoxir 40 μM); “significantly left shifted” in the assay with OVCAR5-cisR cells [4] (OVCAR5-cisR cells, etomoxir 40 μM); “significantly left shifted” in the assay on PEO4 cells (PEO4 cells, etomoxir 40 μM). For the same compound, the “dose-response to etomoxir, compared to parental cell line” value in the assay on COV362-cisR cells (COV362-cisR versus COV362), with OVCAR5-cisR cells [4] (OVCAR5-cisR versus OVCAR5) and with PEO4 cells (PEO4 versus PEO1) was “Higher sensitivity” in each case.

`CCCCCCCCCCCCCCCC(=O)O` [palmitic acid]: the “ATP level (ATP/ADP ratio) on supplementation” value with OVCAR5-cisR cells [12] is given as “significantly increased”.
